This is an account of results in patent US20110015119A1, “NOVEL SEMI-SYNTHETIC GLYCOPEPTIDES AS ANTIBACTERIAL AGENTS” (LEAD THERAPEUTICS, INC., priority 2009, published 2011).

In brackets after ≈: the same amount, converted by molar mass.

Common to all, as to assay type: cell-based
Test [1] has as its system Staphylococcus aureus 2012 (VISA). The test can be described thus: MIC by broth microdilution, SA 2012. Particulars: Staphylococcus aureus 2012 (VISA); class symbols; read-out: MIC SA 2012. The protocol: (§1) Antibacterial activity in vitro is investigated by broth microdilution method in Meuller-Hinton broth as recommended by NCCLS. All strains tested are clinical isolates either sensitive or resistant to natural glycopeptides. MIC values were determined using the CLSI-recommended broth microdilution procedure (Clinical and Laboratory Standards Institute, Methods for Dilution Antimicrobial Susceptibility Tests for Bacteria That Grow Aerobically; Approved Standard-Seventh Edition.). Automated liquid handlers (Multidrop 384, Labsystems, Helsinki, Finland; Biomek 2000 and Multimek 96, Beckman Coulter, Fullerton Calif.) were used to conduct serial dilutions and liquid transfers. The MIC value for vancomycin is given for comparison. The abbreviations for organisms tested are as follow: SA 100—Staphylococcus aureus 100 (ATCC 29213); SA 757—Staphylococcus aureus 757 (MRSA); SA 2012—Staphylococcus aureus 2012 (VISA); SE 835—Staphylococcus epidermidis 835; SE 831—Staphylococcus epidermidis 831 (MRSE); EFc 101—Enterococcus faecalis 101 (ATCC 29212); EFc 848—Enterococcus faecalis 848 (VRE, Van A); EFcm 800—Enterococcus faecium 800; EFcm 752—Enterococcus faecium 752 (VRE, Van A); SPNE 1195—Streptococcus pneumoniae 1195 (ATCC 49619); SPY 712—Streptococcus pyogenes 712.

Test [2] concerns Staphylococcus aureus 757 (MRSA). The test can be described thus: MIC by broth microdilution, SA 757. Particulars: Staphylococcus aureus 757 (MRSA); class symbols; read-out: MIC SA 757. The protocol:
as §1

For test [3], the system named is Streptococcus pneumoniae 1195 (ATCC 49619). The test can be described thus: MIC by broth microdilution, SPNE 1195. The conditions noted are these: ATCC49619; Streptococcus pneumoniae 1195 (ATCC 49619); class symbols; read-out: MIC S PNE 1195. The protocol: as §1
In general terms: Broth dilution looks for growth in wells or tubes with falling amounts of substance.

In another test the test system is Enterococcus faecium 800. The test is described as follows: MIC by broth microdilution, EFcm 800. The conditions noted are these: Enterococcus faecium 800; class symbols; read-out: MIC E FCM 800. The protocol:
as §1

Test [4] deals with Enterococcus faecalis 101 (ATCC 29212). The test is described as follows: MIC by broth microdilution, EFc 101. Particulars: ATCC29212; Enterococcus faecalis 101 (ATCC 29212); class symbols; read-out: MIC E FC 101. The procedure:
as §1

The test system of test [5] is Staphylococcus epidermidis 835. The test can be described thus: MIC by broth microdilution, SE 835. The conditions noted are these: Staphylococcus epidermidis 835; class symbols; read-out: MIC SE 835. The protocol: as §1
The subject of test [6] is Enterococcus faecalis 848 (VRE, Van A). The test can be described thus: MIC by broth microdilution, EFc 848. Particulars: Enterococcus faecalis 848 (VRE, Van A); class symbols; read-out: MIC E FC 848. The protocol:
as §1

The test system of test [7] is Enterococcus faecium 752 (VRE, Van A). The test is described as follows: MIC by broth microdilution, EFcm 752. Particulars: Enterococcus faecium 752 (VRE, Van A); class symbols; read-out: MIC E FCM 752. The procedure: as §1
Test [8] deals with Staphylococcus aureus 100 (ATCC 29213). The test is described as follows: MIC by broth microdilution, SA 100. The conditions noted are these: ATCC29213; Staphylococcus aureus 100 (ATCC 29213); class symbols; read-out: MIC SA 100. The protocol:
as §1

The subject of test [9] is Streptococcus pyogenes 712. The test can be described thus: MIC by broth microdilution, SPY 712. The conditions noted are these: Streptococcus pyogenes 712; class symbols; read-out: MIC S PYO 712. The procedure: as §1
Test [10] relates to Staphylococcus epidermidis 831 (MRSE). The test can be described thus: MIC by broth microdilution, SE 831. The conditions noted are these: Staphylococcus epidermidis 831 (MRSE); class symbols; read-out: MIC SE 831. The procedure:
as §1

For orientation: MIC means the smallest concentration in the dilution series that meets the test's criterion for growth inhibition. Consider `CCCCCCc1ccc(S(=O)(=O)NCCCCCCNCc2c(O)cc3c(c2O)-c2cc(ccc2O)[C@H]2NC(=O)[C@@H]4NC(=O)[C@H](CC(N)=O)NC(=O)[C@H](NC(=O)[C@@H](CC(C)C)NC)[C@H](O)c5ccc(c(Cl)c5)Oc5cc4cc(c5O[C@@H]4O[C@H](CO)[C@@H](O)[C@H](O)[C@H]4O[C@H]4C[C@](C)(NC(=O)CCCCCN)[C@H](O)[C@H](C)O4)Oc4ccc(cc4Cl)[C@@H](O)[C@H](NC2=O)C(=O)N[C@@H]3C(=O)O)cc1` (atropisomer, axis not shown) [Compound 344], for which the MIC (in test [1]; in [2]; in test [3]; in the test on Enterococcus faecium 800; in test [4]; in [5]) was 0.01 to 0.5 µg/mL (≈ 0.00522 to 0.261 µM) each time. In addition, the MIC in test [6] fell in the range of 4 to 8 µg/mL (≈ 2.09 to 4.18 µM); in [7] it was 1 to 2 µg/mL (≈ 0.522 to 1.04 µM); in test [8], 0.01 to 0.5 µg/mL (≈ 0.00522 to 0.261 µM); in [9], 0.01 to 0.5 µg/mL (≈ 0.00522 to 0.261 µM); in test [10], 0.01 to 0.5 µg/mL (≈ 0.00522 to 0.261 µM).
Consider `CCCCCOc1ccc(S(=O)(=O)NCCCCCCNCc2c(O)cc3c(c2O)-c2cc(ccc2O)[C@H]2NC(=O)[C@@H]4NC(=O)[C@H](CC(N)=O)NC(=O)[C@H](NC(=O)[C@@H](CC(C)C)NC)[C@H](O)c5ccc(c(Cl)c5)Oc5cc4cc(c5O[C@@H]4O[C@H](CO)[C@@H](O)[C@H](O)[C@H]4O[C@H]4C[C@](C)(NC(=O)CN)[C@H](O)[C@H](C)O4)Oc4ccc(cc4Cl)[C@@H](O)[C@H](NC2=O)C(=O)N[C@@H]3C(=O)O)cc1` (atropisomer, axis not shown) [Compound 345], for which the MIC (in test [1]; in test [2]; in [3]; with Enterococcus faecium 800; in test [4]; in test [5]) was 0.01 to 0.5 µg/mL (≈ 0.00537 to 0.269 µM) in each case. Besides, the minimal inhibitory concentration (MIC) in test [6] is more than 16 µg/mL; in [7], 8 to 16 µg/mL (≈ 4.3 to 8.6 µM); in [8] it was 0.01 to 0.5 µg/mL (≈ 0.00537 to 0.269 µM); in test [9], 0.01 to 0.5 µg/mL (≈ 0.00537 to 0.269 µM); in test [10], 0.01 to 0.5 µg/mL (≈ 0.00537 to 0.269 µM).
As to `CCCCCOc1ccc(S(=O)(=O)NCCCCNCc2c(O)cc3c(c2O)-c2cc(ccc2O)[C@H]2NC(=O)[C@@H]4NC(=O)[C@H](CC(N)=O)NC(=O)[C@H](NC(=O)[C@@H](CC(C)C)NC)[C@H](O)c5ccc(c(Cl)c5)Oc5cc4cc(c5O[C@@H]4O[C@H](CO)[C@@H](O)[C@H](O)[C@H]4O[C@H]4C[C@](C)(NC(=O)CN)[C@H](O)[C@H](C)O4)Oc4ccc(cc4Cl)[C@@H](O)[C@H](NC2=O)C(=O)N[C@@H]3C(=O)O)cc1` (atropisomer, axis not shown) [Compound 346], the MIC in [1] was 0.5 to 1 µg/mL (≈ 0.273 to 0.546 µM); in test [2], 0.01 to 0.5 µg/mL (≈ 0.00546 to 0.273 µM); in [3], 0.01 to 0.5 µg/mL (≈ 0.00546 to 0.273 µM); in the test on Enterococcus faecium 800, 0.01 to 0.5 µg/mL (≈ 0.00546 to 0.273 µM); in test [4], 0.5 to 1 µg/mL (≈ 0.273 to 0.546 µM); in test [5] it was 0.01 to 0.5 µg/mL (≈ 0.00546 to 0.273 µM). The minimal inhibitory concentration (MIC) in test [6] was more than 16 µg/mL; in test [7], 8 to 16 µg/mL (≈ 4.36 to 8.73 µM); in [8], 0.01 to 0.5 µg/mL (≈ 0.00546 to 0.273 µM); in test [9], 0.01 to 0.5 µg/mL (≈ 0.00546 to 0.273 µM); in [10], 0.01 to 0.5 µg/mL (≈ 0.00546 to 0.273 µM).
